In ChEMBL document CHEMBL1821627, “Medicinal chemistry as a conduit for the modulation of quorum sensing” (J Med Chem, 2010):
Where a SMILES comes first, the peptide text is derived from it. Bridges are numbered along the chain shown (N, C = ends). [ ]: non-standard residue; d: D form. NMeF = CN[C@@H](Cc1ccccc1)C(=O)O; NMeL = CN[C@@H](CC(C)C)C(=O)O; NMeS = CN[C@@H](CO)C(=O)O; Dap = NC[C@H](N)C(=O)O

What was measured:
[1] = Inhibition of quorum sensing regulated bioluminescence in Vibrio harveyi
[2] = biological target: T1, Transcriptional activator protein LuxR (Aliivibrio fischeri, UniProt P12746); assay: Antagonist activity at Vibrio fischeri luxR receptor in presence of 5 uM 3-oxo-C6-HSL; type: functional
T1 sequence (P12746 whole entry): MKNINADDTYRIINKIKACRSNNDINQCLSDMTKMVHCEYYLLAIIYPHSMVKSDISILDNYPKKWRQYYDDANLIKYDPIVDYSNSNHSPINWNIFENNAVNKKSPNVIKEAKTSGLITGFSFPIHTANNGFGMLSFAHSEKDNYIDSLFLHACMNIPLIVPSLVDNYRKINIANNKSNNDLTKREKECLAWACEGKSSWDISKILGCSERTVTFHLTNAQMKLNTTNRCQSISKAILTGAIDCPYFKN

[3] = biological target: T2, Transcriptional activator protein LasR (Pseudomonas aeruginosa (strain ATCC 15692 / PAO1 / 1C / PRS 101 / LMG12228), UniProt P25084); assay: Agonist activity at Pseudomonas aeruginosa LasR cognate receptor expressed in Escherichia coli harboring pKDT17 assessed as activation of lasB expression by LacZ reporter gene assay; type: functional
T2 sequence (P25084 whole entry): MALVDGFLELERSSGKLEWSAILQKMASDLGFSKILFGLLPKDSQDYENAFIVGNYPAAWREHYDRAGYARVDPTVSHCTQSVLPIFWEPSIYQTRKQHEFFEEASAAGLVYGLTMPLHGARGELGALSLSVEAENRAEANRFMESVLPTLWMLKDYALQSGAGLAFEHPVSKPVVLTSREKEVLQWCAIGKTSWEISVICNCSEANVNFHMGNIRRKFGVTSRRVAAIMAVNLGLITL

Aliivibrio fischeri = assay: Induction of quorum sensing regulated bioluminescence in Vibrio fischeri by luminescence assay relative to natural autoinducer
Vibrio harveyi = assay: Induction of quorum sensing regulated bioluminescence in Vibrio harveyi by luminescence assay
[4] = biological target: T2, Transcriptional activator protein LasR; assay: Antagonist activity at Pseudomonas aeruginosa LasR receptor expressed in Escherichia coli in presence of 7.5 nM natural auto-inducer 3-oxo-C12-HSL; type: functional
[5] = biological target: T3, Autoinducer 1 sensor kinase/phosphatase LuxN (Vibrio harveyi, UniProt P0C5S6); assay: Inhibition of LuxN-dependent bioluminescence in Vibrio harveyi
T3 sequence (P0C5S6 whole entry): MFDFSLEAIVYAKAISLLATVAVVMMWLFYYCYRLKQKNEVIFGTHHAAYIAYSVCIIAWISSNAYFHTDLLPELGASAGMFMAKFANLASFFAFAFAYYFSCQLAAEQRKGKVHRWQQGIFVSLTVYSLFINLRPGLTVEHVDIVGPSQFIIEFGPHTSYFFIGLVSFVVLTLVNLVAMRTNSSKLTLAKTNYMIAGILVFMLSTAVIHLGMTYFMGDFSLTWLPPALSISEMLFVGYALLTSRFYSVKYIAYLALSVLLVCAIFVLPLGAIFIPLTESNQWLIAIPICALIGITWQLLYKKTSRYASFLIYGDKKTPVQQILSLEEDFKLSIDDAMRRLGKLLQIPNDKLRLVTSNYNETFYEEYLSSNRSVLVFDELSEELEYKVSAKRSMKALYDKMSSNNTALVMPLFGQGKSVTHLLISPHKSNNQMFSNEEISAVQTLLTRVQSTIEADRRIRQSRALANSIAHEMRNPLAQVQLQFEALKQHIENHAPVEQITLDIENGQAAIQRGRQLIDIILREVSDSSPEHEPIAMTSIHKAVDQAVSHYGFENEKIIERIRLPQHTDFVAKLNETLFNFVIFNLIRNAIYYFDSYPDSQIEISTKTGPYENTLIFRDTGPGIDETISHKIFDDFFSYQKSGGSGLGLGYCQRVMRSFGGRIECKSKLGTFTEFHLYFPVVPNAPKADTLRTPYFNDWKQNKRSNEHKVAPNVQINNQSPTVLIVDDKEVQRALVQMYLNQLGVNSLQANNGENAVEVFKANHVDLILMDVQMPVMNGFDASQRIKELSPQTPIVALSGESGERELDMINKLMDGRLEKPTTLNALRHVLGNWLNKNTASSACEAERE

[6] = Induction of quorum sensing activity in Pseudomonas aeruginosa assessed as maximal induction of LasR-dependent yellow fluorescent protein emission by luminescence assay
[7] = test system: Chromobacterium violaceum; assay: In vivo inhibition of violacein production in Chromobacterium violaceum; type: functional, organism-based
[8] = Inhibition of quorum sensing in Pseudomonas aeruginosa assessed as inhibition of LasR-dependent yellow fluorescent protein emission by luminescence assay
[9] = Inhibition of Staphylococcus aureus Quorum sensing system AgrC-II activation after 60 to 90 minutes by beta-lactamase reporter assay
[10] = Inhibition of Staphylococcus aureus Quorum sensing system AgrC-I activation after 60 to 90 minutes by beta-lactamase reporter assay
[11] = Inhibition of quorum sensing Salmonella Typhimurium by beta-galactosidase transcription assay in presence of 50 uM DPD; set-up: species or system Salmonella enterica subsp. enterica serovar Typhimurium

Work on CCOC(=O)CS(=O)(=O)c1ccc(-c2ccc3c(c2)OCCO3)cc1 yielded an IC50 [1] of 158 µM.
In the case of Oc1ccccc1O [CATECHOL], the IC50 [1] is reported as 59 µM.
Work on Cc1ccc(B(O)O)cc1F yielded an IC50 [1] of 9 µM.
In the case of O=C(Cc1ccc(C(F)(F)F)cc1)N[C@H]1CCOC1=O, the IC50 [2] is reported as 610 nM.
Compound CCOC(=S)CS(=O)(=O)c1ccc(-c2ccccc2)cc1 has an IC50 [1] of 5.7 µM.
Compound CCCCCC(=O)CC(=O)N[C@H]1CCOC1=O has an EC50 [3] of 150 nM and an Activity (Aliivibrio fischeri) of 50%.
CC(=O)C(=O)[C@@H](O)CO showed an EC50 (Vibrio harveyi) of 3000 nM.
Work on CCCCC/C=C/CCC(=O)CC(=O)N[C@H]1CCOC1=O yielded an EC50 [3] of 10 nM.
Work on CCCCCCCC(=O)N[C@H]1CCOC1=O yielded an IC50 [2] of 770 nM.
O=C(CCc1ccc(Br)cc1)N[C@H]1CCOC1=O showed an IC50 [4] of 340 nM.
Work on CCOC(=O)CS(=O)(=O)c1ccc(-c2ccccc2)cc1 yielded an IC50 [1] of 8.7 µM.
Compound CCCCCCCC(=O)CC(=O)N[C@H]1CCOC1=O has an EC50 [3] of 15 nM.
COc1ccc(CNC(=O)C(NS(=O)(=O)c2ccc3nc(C)sc3c2)C(C)C)cc1 (stereo unspecified) gave an IC50 [5] of 2900 nM.
O=C(Oc1c(Br)cc(Br)cc1CNC(=O)c1ccccc1[N+](=O)[O-])c1ccccc1Cl showed an EC50 [6] of 14 nM.
O=C(CCCOc1ccc(Cl)cc1)NC1CCOC1=O (stereo unspecified) gave an IC50 [7] of 295 nM.
Compound N#Cc1ccc(B(O)O)cc1 has an IC50 [1] of 6 µM.
Compound CCCCCCCCCNC(=O)CC(=O)c1ccccc1 has an IC50 [8] of 10 µM.
For CC(=O)N[C@H]1CSC(=O)[C@H](Cc2ccccc2)NC(=O)[C@H](CC(C)C)N(C)C(=O)[C@H](CO)NC(=O)[C@H](CO)NC1=O (Ac-CSS[NMeL]F; thioester 1-C), the IC50 [9] was “Not Active” and the IC50 [10] was “Not Active”.
For CC(=O)N[C@H]1CSC(=O)[C@H](Cc2ccccc2)N(C)C(=O)[C@H](CC(C)C)NC(=O)[C@H](CO)NC(=O)[C@H](CO)NC1=O (Ac-CSSL[NMeF]; thioester 1-C), the IC50 [9] was “Not Active” and the IC50 [10] was “Not Active”.
Cc1cc(Cl)ccc1OCCCC(=O)NC1CCSC1=O (stereo unspecified) showed an IC50 [7] of 1200 nM.
For O=C(Nc1ccccc1NC(=O)c1cccc(Cl)c1)c1cccc(Cl)c1, the IC50 [8] was 50 µM.
In the case of NC(=O)CS(=O)(=O)c1cccs1, the IC50 [1] is reported as > 400 µM.
In the case of CCCCCCCCCC(O)CC(=O)N[C@H]1CCOC1=O (stereo partly specified), the EC50 [3] is reported as 54 nM.
With CC(=O)N[C@H]1CSC(=O)[C@H](Cc2ccccc2)NC(=O)[C@H](CC(C)C)NC(=O)[C@H](CO)N(C)C(=O)[C@H](CO)NC1=O (Ac-CS[NMeS]LF; thioester 1-C) the IC50 ([9]; read-out: IC50) was 1.05 µM and the IC50 ([10]; read-out: IC50) was 319 nM.
CC(=O)CCCC(=O)N[C@H]1CCOC1=O showed an Activity (Aliivibrio fischeri) of 10%.
With CC(=O)N[C@H]1CNC(=O)[C@H](Cc2ccccc2)NC(=O)[C@H](CC(C)C)NC(=O)[C@H](CO)NC(=O)[C@H](CO)NC1=O (Ac-[Dap]SSLF; lactam 1-C) the IC50 ([9]; read-out: IC50) was 167 µM and the IC50 ([10]; read-out: IC50) was 1390 nM.
CCCCCCCCCC(=O)CC(=O)N[C@H]1CCSC1=O gave an EC50 [3] of 7 nM.
With O=C(CCc1ccccc1)C(=O)[C@@H](O)CO the IC50 [11] was > 50 µM.
CC(=O)N[C@H]1CSC(=O)[C@H](Cc2ccccc2)NC(=O)[C@H](CC(C)C)NC(=O)CNC(=O)CNC1=O (Ac-CGGLF; thioester 1-C) gave an IC50 ([9]; read-out: IC50) of 0.238 µM and an IC50 ([10]; read-out: IC50) of 77 nM.
CC(=O)N[C@H]1CSC(=O)[C@H](Cc2ccccc2)NC(=O)[C@H](CC(C)C)NC(=O)[C@H](CO)NC(=O)[C@H](CO)N(C)C1=O (Ac-C[NMeS]SLF; thioester 1-C) gave an IC50 ([9]; read-out: IC50) of 7.88 µM and an IC50 ([10]; read-out: IC50) of 639 nM.
CCCCCCCCCCCC(=O)N[C@H]1CCOC1=O showed an EC50 [3] of 33 nM.
In the case of Cc1ccc(B(O)O)c(F)c1, the IC50 [1] is reported as 4 µM.
In the case of O=Cc1ccc(O)c(O)c1O, the IC50 [1] is reported as 4 µM.
Compound O=C(c1ccccc1)c1ccc(O)c(O)c1O has an IC50 [1] of 4 µM.
